In PMC11413451 (Frontiers in Cell and Developmental Biology, 2024):
Like-named read-outs stand apart in the source and are kept apart here.

Assays:
human Slo3 = biological target: T1, human Slo3 (Homo sapiens, UniProt A8MYU2); assay: Whole-cell patch-clamp of Slo3 currents in CHO cells co-expressing human Slo3 and LRRC52; format: cell-based
T1 construct: expressed in transfected cells; host or cells: CHO cells, transient co-transfection with pcDNA3.1(+) vectors
T1 sequence (A8MYU2 1-1149): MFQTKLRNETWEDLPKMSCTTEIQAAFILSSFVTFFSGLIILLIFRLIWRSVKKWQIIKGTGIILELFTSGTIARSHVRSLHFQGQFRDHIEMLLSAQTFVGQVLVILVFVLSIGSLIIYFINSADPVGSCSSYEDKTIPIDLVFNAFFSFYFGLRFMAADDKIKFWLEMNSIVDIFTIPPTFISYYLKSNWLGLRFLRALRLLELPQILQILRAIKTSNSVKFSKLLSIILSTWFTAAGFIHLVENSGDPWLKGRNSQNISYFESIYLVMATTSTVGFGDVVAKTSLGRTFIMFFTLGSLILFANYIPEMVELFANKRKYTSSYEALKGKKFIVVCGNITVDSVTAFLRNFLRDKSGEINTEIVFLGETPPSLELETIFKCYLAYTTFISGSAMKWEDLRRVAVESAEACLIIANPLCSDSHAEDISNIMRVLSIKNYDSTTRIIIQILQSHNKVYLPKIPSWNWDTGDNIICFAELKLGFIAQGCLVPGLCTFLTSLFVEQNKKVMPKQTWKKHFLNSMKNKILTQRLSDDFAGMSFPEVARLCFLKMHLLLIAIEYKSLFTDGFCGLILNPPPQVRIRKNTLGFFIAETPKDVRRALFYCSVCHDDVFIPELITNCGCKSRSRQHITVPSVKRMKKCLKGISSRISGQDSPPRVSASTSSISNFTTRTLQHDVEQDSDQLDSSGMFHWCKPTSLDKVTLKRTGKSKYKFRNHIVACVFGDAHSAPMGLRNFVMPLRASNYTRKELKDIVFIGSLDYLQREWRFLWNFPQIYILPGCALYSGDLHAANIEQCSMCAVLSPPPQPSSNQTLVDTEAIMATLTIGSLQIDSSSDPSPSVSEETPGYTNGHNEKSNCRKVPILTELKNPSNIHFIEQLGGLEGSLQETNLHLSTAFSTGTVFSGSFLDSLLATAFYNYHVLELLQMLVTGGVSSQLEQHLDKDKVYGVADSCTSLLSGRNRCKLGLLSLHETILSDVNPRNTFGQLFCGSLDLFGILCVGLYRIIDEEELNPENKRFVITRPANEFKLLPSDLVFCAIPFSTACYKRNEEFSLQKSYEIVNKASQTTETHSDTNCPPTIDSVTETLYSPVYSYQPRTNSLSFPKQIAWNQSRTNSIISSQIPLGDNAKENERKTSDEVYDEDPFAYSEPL
T1 sequence (Q8N7C0 24-313 partner): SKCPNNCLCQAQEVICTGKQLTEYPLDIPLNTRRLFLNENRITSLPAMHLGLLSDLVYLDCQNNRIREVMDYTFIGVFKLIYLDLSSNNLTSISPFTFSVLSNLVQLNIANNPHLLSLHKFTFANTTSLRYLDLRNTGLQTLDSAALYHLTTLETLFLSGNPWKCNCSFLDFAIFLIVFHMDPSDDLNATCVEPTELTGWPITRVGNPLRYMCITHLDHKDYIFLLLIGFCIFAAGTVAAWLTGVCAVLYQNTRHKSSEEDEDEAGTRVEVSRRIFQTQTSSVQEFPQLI

CatSper = conditions: relative to progesterone; cited from earlier work
[1] = dose-response, Hill fit, mean ± SD, read-out: IC50 for inhibition of Slo3
[2] = 50 µM prostaglandin, n = 3, in range of current rundown

Row | Compound | decrease of Slo3 current amplitude (human Slo3; 50 μM steroid, +100 mV, n ≥ 3) | also measured
1 | CC(=O)[C@H]1CC[C@H]2[C@@H]3CCC4=CC(=O)CC[C@]4(C)[C@H]3CC[C@]12C [progesterone] | significantly decreased | IC50 (human Slo3; [1]): 5.2 ± 2.9 µM
2 | CCCCC[C@H](O)/C=C/[C@H]1[C@H](O)CC(=O)[C@@H]1CCCCCCC(=O)O [PGE1, prostagladin E1] |  | decrease of Slo3 current amplitude (human Slo3; [2]): 18 ± 7%
3 | C[C@]12CCC(=O)C=C1CC[C@@H]1[C@@H]2C(=O)C[C@@]2(C)[C@H]1CC[C@]2(O)C(=O)CO [cortisone] | ≤ 18% | 
4 | CC(=O)[C@@]1(O)CC[C@H]2[C@@H]3CC=C4C[C@@H](O)CC[C@]4(C)[C@H]3CC[C@@]21C [17α-hydroxypregnenolone] | ≤ 18% | 
5 | C[C@]12CC[C@H](O)CC1=CC[C@@H]1[C@@H]2CC[C@]2(C)C(=O)CC[C@@H]12 [DHEA, dehydroepiandrosterone] | significantly decreased | IC50 (human Slo3): 41 ± 4 µM
6 | CC(=O)[C@H]1CC[C@H]2[C@@H]3CC=C4C[C@@H](O)CC[C@]4(C)[C@H]3CC[C@]12C [pregnenolone] | ≤ 18% | 
7 | C[C@]12CC[C@@H]3c4ccc(O)cc4CC[C@H]3[C@@H]1CCC2=O [estrone] | ≤ 18% | 
8 | C[C@]12CC[C@H]3[C@@H](CC=C4C[C@@H](O)CC[C@@]43C)[C@@H]1CC[C@@H]2O [androstenediol] | ≤ 18% | 
9 | CCCCC/C=C\C/C=C\C/C=C\C/C=C\CCCC(=O)O [arachidonic acid] |  | effect on Slo3 currents (human Slo3; 3 µM arachidonic acid, n = 7): did not affect
10 | C[C@]12C[C@H](O)[C@H]3[C@@H](CCC4=CC(=O)CC[C@@]43C)[C@@H]1CC[C@@H]2C(=O)CO [corticosterone] | significantly decreased | IC50 (human Slo3; [1]): 58 ± 11 µM
11 | C[C@]12CC[C@@H]3c4ccc(O)cc4CC[C@H]3[C@@H]1CC[C@@H]2O [estradiol] | significantly decreased | fold less potent than progesterone to activate CatSper (CatSper): around 100 fold; IC50 (human Slo3): 8.9 ± 4.4 µM
12 | [Zn+2] [Zn^2+] |  | decrease of Slo3 current amplitude (human Slo3; 1 mM Zn^2+, n = 4, in range of current rundown): 14 ± 13%
13 | C[C@]12CC[C@H]3[C@@H](CCC4=CC(=O)CC[C@@]43C)[C@@H]1CC[C@@H]2O [testosterone] | significantly decreased | IC50 (human Slo3): 17 ± 14 µM
14 | C[C@]12CCC(=O)C=C1CC[C@@H]1[C@@H]2CC[C@]2(C)C(=O)CC[C@@H]12 [androstenedione] | ≤ 18% | 
15 | CCCCC[C@H](O)/C=C/[C@H]1[C@H](O)CC(=O)[C@@H]1C/C=C\CCCC(=O)O [PGE2, prostaglandin E2] |  | decrease of Slo3 current amplitude (human Slo3; [2]): 7 ± 7%
16 | CC(=O)C1(O)CCC2C3CCC4=CC(=O)CCC4(C)C3CCC21C (stereo not drawn) [17α-hydroxyprogesterone] | significantly decreased | IC50 (human Slo3; [1]): 27 ± 10 µM
